Results from patent publication US8329904B2, “Azacyclic derivatives” (Hoffmann-La Roche Inc., priority 2009, dated 2012).

molecular target: T1, human HSL (Homo sapiens, UniProt Q05469); assay: Human Hormone-Sensitive Lipase (HSL) Enzyme Inhibition Assay; format: biochemical; conditions: colorimetric assay, 2,3-dimercapto-1-propanol tributyrate (DMPT) substrate, 37° C. for 20 minutes, absorbance at 405 nm; read-out: HSL hum IC50
T1 construct: overlapping PCR to generate a full length human HSL ORF with a 3′-His6 tag; His6 (C); made in house; host or cells: High 5 insect cells (baculovirus, pFast-BAC)
T1 sequence (Q05469 1-1076): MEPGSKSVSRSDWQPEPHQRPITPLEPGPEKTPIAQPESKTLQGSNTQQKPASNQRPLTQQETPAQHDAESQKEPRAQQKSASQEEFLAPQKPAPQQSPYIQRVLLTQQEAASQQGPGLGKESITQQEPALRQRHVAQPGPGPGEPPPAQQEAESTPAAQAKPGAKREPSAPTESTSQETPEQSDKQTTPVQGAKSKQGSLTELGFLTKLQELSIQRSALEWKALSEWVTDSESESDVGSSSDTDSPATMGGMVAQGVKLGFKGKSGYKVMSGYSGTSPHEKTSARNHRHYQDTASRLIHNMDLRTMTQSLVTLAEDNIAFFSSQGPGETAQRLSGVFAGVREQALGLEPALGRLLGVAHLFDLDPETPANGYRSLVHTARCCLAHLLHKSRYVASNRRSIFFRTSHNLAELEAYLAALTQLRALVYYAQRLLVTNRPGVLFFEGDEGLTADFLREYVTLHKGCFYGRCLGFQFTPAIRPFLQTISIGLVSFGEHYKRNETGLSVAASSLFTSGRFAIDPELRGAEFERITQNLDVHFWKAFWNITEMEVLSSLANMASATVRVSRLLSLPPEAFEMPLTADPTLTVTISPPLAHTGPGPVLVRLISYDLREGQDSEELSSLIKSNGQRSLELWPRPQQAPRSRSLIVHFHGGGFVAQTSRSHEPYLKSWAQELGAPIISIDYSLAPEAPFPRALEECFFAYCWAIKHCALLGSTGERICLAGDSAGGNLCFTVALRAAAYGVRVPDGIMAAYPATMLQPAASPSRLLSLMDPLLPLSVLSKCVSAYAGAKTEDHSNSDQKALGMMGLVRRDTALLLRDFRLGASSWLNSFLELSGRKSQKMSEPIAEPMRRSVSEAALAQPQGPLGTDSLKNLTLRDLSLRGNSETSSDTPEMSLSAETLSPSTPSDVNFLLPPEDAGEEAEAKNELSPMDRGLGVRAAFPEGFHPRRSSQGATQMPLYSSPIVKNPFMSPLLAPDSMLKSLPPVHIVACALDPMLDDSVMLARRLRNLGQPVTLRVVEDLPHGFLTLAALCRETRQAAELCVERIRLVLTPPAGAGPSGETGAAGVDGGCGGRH
Method: Production of Human Full Length Hormone Sensitive Lipase-His^6
1) Cloning: cDNA was prepared from commercial human brain polyA-+ RNA and used as a template in overlapping PCR to generate a full length human HSL ORF with a 3′-His6 tag. This full length insert was cloned into the pFast-BAC vector and the DNA-sequence of several single clones was verified. DNA from a correct full length clone with the 3′His6 tag was used to transform the E. coli strain DH10BAC. Resulting bacmid DNA was used to generate a titered baculovirus stock for protein generation.
Cells were thawed. […] was done at 3×30 sec., Lubrol PX was added to 0.2% final concentration followed by stirring for 15 min. at 4° C. and centrifugation at 25 k×g, 60 min., 4° C. […] Supernatant was removed, the resin washed in the centrifuge vessel using 5 volumes of Base Buffer containing 0.2% Lubrol PX. Centrifugation was done again, then the supernatant discarded. The resin wass poured onto a 0.8 μm membrane in a disposable filter unit (Nalge 450-0080), and washed with 5 volumes of Base Buffer containing 0.2% Lubrol PX. It was then washed with 30 volumes of Base Buffer containing 60 mM imidazole pH 7.5 at 4° C. The protein was eluated with 5 volumes of 25 mM Tris-Cl, 300 mM NaCl, 200 mM imidazole, 10 mM 2-mercaptoethanol, pH 7.5 at 4° C. by tumbling resin with buffer end-over-end, 30 min., 4° C. The resin was captured on a 0.2 μm membrane disposable filter unit (Millipore SCGP U02 RE) and the eluate collected in the reservoir. The eluate was concentrated using a 30 k MWCO centrifugal filter device (Sartorius Vivascience Vivacell 100, VC1022), to 20 ml. It was then dialyzed overnight at 4° C., two times against 2 L of 10% glycerol, 25 mM Tris-Cl, 300 mM NaCl, 0.2 mM EDTA, 0.2 mM DTT, pH 7.5 at 4° C. The protein was filtered using a 0.22 μm disposable filter unit (Millipore SCGP00525). The protein concentration was calculated from absorbance at 280 nm, using 280=0.67 cm-1 mg-1. […] The protein was stored at −80° C.
Human Hormone-Sensitive Lipase (HSL) Enzyme Inhibition Assay:
HSL enzyme activity was measured by a colorimetric assay using 2,3-dimercapto-1-propanol tributyrate (Aldrich, St. Louis, Mo.) as a substrate. Typically, 1.5 mM 2,3-dimercapto-1-propanol tributyrate (DMPT) in 100 mM MOPS, pH 7.2, 0.2 mg/ml fatty acid-free BSA was prepared by sonication at 4° C. to homogenous suspension. Test compounds (2 mM stock in DMSO) were diluted 3 fold in series in DMSO. Compound solutions were diluted 24 fold in 1.5 mM DMPT containing solution and 18 ul per well was added to 384-well microplates (Corning Costar). Twelve microliters per well of human HSL (15 ug/ml) was added and the reaction mixture was incubated at 37° C. for 20 minutes. Six microliters of 12 mM dithio-bis-(2-nitrobenzoic acid) (DTNB) in DMSO plus 1.2% SDS and 0.6% Triton X-100 were added and the mixture was incubated at room temperature for 15 minutes. Product production was monitored by reading absorbance at 405 nm on an Envision Reader (PerkinElmer Life and Analytical Sciences, Shelton, Conn.).

SMILES | IC50
O=C1N(c2ccc(OCCC(F)(F)F)cc2)CCC12CCN(S(=O)(=O)c1ccccc1OC(F)(F)F)CC2 [Example 103, 8-(2-Trifluoromethoxy-benzenesulfonyl)-2-[4-(3,3,3-trifluoro-propoxy)-phenyl]-2,8-diaza-spiro[4.5]decan-1-one] | 50 nM
O=C1N(c2ccc(OC(F)(F)F)cc2)CCC12CCN(S(=O)(=O)c1ccccc1)CC2 [Example 2, 8-Benzenesulfonyl-2-(4-trifluoromethoxy-phenyl)-2,8-diaza-spiro[4.5]decan-1-one] | 40 nM
COCc1ccc(N2CCC3(CCN(S(=O)(=O)c4ccccc4Cl)CC3)C2=O)cc1 [Example 142, 8-(2-Chloro-benzenesulfonyl)-2-(4-methoxymethyl-phenyl)-2,8-diaza-spiro[4.5]decan-1-one] | 40 nM
CC(Oc1ccc(N2CCC3(CCN(S(=O)(=O)c4ccccc4OC(F)(F)F)CC3)C2=O)cc1)C(F)(F)F (stereo not shown) [Example 99, 8-(2-Trifluoromethoxy-benzenesulfonyl)-2-[4-(2,2,2-trifluoro-1-methyl-ethoxy)-phenyl]-2,8-diaza-spiro[4.5]decan-1-one] | 30 nM
COCC(C)(C)c1ccc(N2CCC3(CCN(S(=O)(=O)c4c(C)noc4C)CC3)C2=O)cc1 [Example 112, 8-(3,5-Dimethyl-isoxazole-4-sulfonyl)-2-[4-(2-methoxy-1,1-dimethyl-ethyl)-phenyl]-2,8-diaza-spiro[4.5]decan-1-one] | 270 nM
C=Cc1ccc(N2CCC3(CCN(S(=O)(=O)c4ccccc4Cl)CC3)C2=O)cc1 [Example 91, 8-(2-Chloro-benzenesulfonyl)-2-(4-vinyl-phenyl)-2,8-diaza-spiro[4.5]decan-1-one] | 40 nM
CC(C)c1ccc(N2CCC3(CCN(S(=O)(=O)c4ccccc4)CC3)C2=O)cn1 [Example 10, 8-Benzenesulfonyl-2-(6-isopropyl-pyridin-3-yl)-2,8-diaza-spiro[4.5]decan-1-one] | 130 nM
O=C1N(c2ccc(COCC3CC3)cc2)CCC12CCN(S(=O)(=O)c1ccccc1Cl)CC2 [Example 148, 8-(2-Chloro-benzenesulfonyl)-2-(4-cyclopropylmethoxymethyl-phenyl)-2,8-diaza-spiro[4.5]decan-1-ones] | 90 nM
O=C1N(c2ccc(OC(F)(F)F)cc2)CCC12CCN(S(=O)(=O)c1ccccc1OC(F)(F)F)CC2 [Example 55, 8-(2-Trifluoromethoxy-benzenesulfonyl)-2-(4-trifluoromethoxy-phenyl)-2,8-diaza-spiro[4.5]decan-1-one] | 20 nM
Cc1nc2ccc(N3CCC4(CCN(S(=O)(=O)c5ccccc5Cl)CC4)C3=O)cc2s1 [Example 127, 8-(2-Chloro-benzenesulfonyl)-2-(2-methyl-benzothiazol-6-yl)-2,8-diaza-spiro[4.5]decan-1-one] | 60 nM
CCS(=O)(=O)c1ccc(N2CCC3(CCN(S(=O)(=O)CC(C)(C)C)CC3)C2=O)cc1 [Example 172, 8-(2,2-Dimethyl-propane-1-sulfonyl)-2-(4-ethanesulfonyl-phenyl)-2,8-diaza-spiro[4.5]decan-1-one] | 770 nM
O=C1N(c2ccc(I)cc2)CCC12CCN(S(=O)(=O)c1ccccc1OC(F)(F)F)CC2 [Example 104, 2-(4-Iodo-phenyl)-8-(2-trifluoromethoxy-benzenesulfonyl)-2,8-diaza-spiro[4.5]decan-1-one] | 40 nM
O=C1N(c2ccc(OCC(F)(F)F)cc2)CCC12CCN(S(=O)(=O)c1cccnc1)CC2 [Example 205, 8-(Pyridine-3-sulfonyl)-2-[4-(2,2,2-trifluoro-ethoxy)-phenyl]-2,8-diaza-spiro[4.5]decan-1-one] | 60 nM

Second part, the molecule after the results:

IC50 | SMILES
220 nM | CC(C)OCC(=O)N1CCC2(CC1)CCN(c1ccc(OC(F)(F)F)cc1)C2=O [Example 217, 8-(2-Isopropoxy-acetyl)-2-(4-trifluoromethoxy-phenyl)-2,8-diaza-spiro[4.5]decan-1-one]
70 nM | CC(C)NS(=O)(=O)N1CCC2(CCN(c3ccc(OC(F)(F)F)cc3)C2=O)CC1 [Example 285, 1-Oxo-2-(4-trifluoromethoxy-phenyl)-2,8-diaza-spiro[4.5]decane-8-sulfonic acid isopropylamide]
130 nM | CCCCN(C)C(=O)N1CCC2(CC1)CCN(c1ccc(C3CC3)cc1)C2=O [Example 314, 2-(4-Cyclopropyl-phenyl)-1-oxo-2,8-diaza-spiro[4.5]decane-8-carboxylic acid butyl-methyl-amide]
70 nM | CC(C)CN(C)C(=O)N1CCC2(CC1)CCN(c1ccc(OC(F)(F)F)cc1)C2=O [Example 270, 1-Oxo-2-(4-trifluoromethoxy-phenyl)-2,8-diaza-spiro[4.5]decane-8-carboxylic acid isobutyl-methyl-amide]
160 nM | O=C1N(c2ccc(OC(F)(F)F)cc2)CCC12CCN(S(=O)(=O)CC(O)C1CC1)CC2 (stereo not shown) [Example 208, 8-(2-Cyclopropyl-2-hydroxy-ethanesulfonyl)-2-(4-trifluoromethoxy-phenyl)-2,8-diaza-spiro[4.5]decan-1-one]
340 nM | O=C(NCc1ccccc1Cl)N1CCC2(CC1)CCN(c1ccc(OC(F)(F)F)cc1)C2=O [Example 262, 1-Oxo-2-(4-trifluoromethoxy-phenyl)-2,8-diaza-spiro[4.5]decane-8-carboxylic acid 2-chloro-benzylamide]
220 nM | O=C(N1CCCCCC1)N1CCC2(CC1)CCN(c1ccc(OC(F)(F)F)cc1)C2=O [Example 271, 8-(Azepane-1-carbonyl)-2-(4-trifluoromethoxy-phenyl)-2,8-diaza-spiro[4.5]decan-1-one]
50 nM | O=C1N(CCc2ccccc2)CCC12CCN(S(=O)(=O)c1ccccc1Cl)CC2 [Example 236, 8-(2-Chloro-benzenesulfonyl)-2-phenethyl-2,8-diaza-spiro[4.5]decan-1-one]
80 nM | CCCCCN(C)C(=O)N1CCC2(CC1)CCN(c1ccc(OC(F)(F)F)cc1)C2=O [Example 273, 1-Oxo-2-(4-trifluoromethoxy-phenyl)-2,8-diaza-spiro[4.5]decane-8-carboxylic acid methyl-pentyl-amide]
